In PubChem BioAssay (NCI):
Where “and” joins values, the source holds several entries; their conditions need not be identical. Equal values may be shown once.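 Values below derive from 48-hour exposures of cells grown in 96-well plates, with endpoints linearly interpolated between the two concentrations bracketing the appropriate inhibition level. GI50 marks 50% less growth. TGI: total growth inhibition.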

Legend:
Assay in all cases: DTP human tumour cell line panel, 48 h
A549 NSCLC = tested on: A549 NSCLC
UACC-257 melanoma = tested on: UACC-257 melanoma
NCI-H23 lung = tested on: NCI-H23 lung
LOX IMVI melanoma = tested on: LOX IMVI melanoma
OVCAR-4 ovarian = tested on: OVCAR-4 ovarian
SW-620 colon = tested on: SW-620 colon
SR leukemia = tested on: SR leukemia
K-562 leukemia = tested on: K-562 leukemia
SK-MEL-2 melanoma = tested on: SK-MEL-2 melanoma
NCI/ADR-RES ovarian = tested on: NCI/ADR-RES ovarian

Row | Compound | GI50 (A549 NSCLC) | TGI (A549 NSCLC) | GI50 (UACC-257 melanoma) | TGI (UACC-257 melanoma) | GI50 (NCI-H23 lung) | TGI (NCI-H23 lung) | GI50 (LOX IMVI melanoma) | TGI (LOX IMVI melanoma) | GI50 (OVCAR-4 ovarian) | TGI (OVCAR-4 ovarian) | GI50 (SW-620 colon) | TGI (SW-620 colon) | GI50 (SR leukemia) | TGI (SR leukemia) | GI50 (K-562 leukemia) | TGI (K-562 leukemia) | GI50 (SK-MEL-2 melanoma) | TGI (SK-MEL-2 melanoma) | GI50 (NCI/ADR-RES ovarian) | TGI (NCI/ADR-RES ovarian)
1 | O=C(C(=O)c1cccnc1)c1cccnc1 | > 100 µM | > 100 µM | > 100 µM | > 100 µM | > 100 µM | > 100 µM | > 100000 nM | > 100 µM | > 100 µM | > 100 µM | > 100 µM | > 100 µM | > 100 µM | > 100 µM | > 100 µM | > 100 µM | > 100 µM | > 100 µM | > 100 µM | > 100 µM
2 | O=c1[nH][nH]c(=O)c2c(O)c(-c3ccccc3)ncc12 | 57.7 µM and 325 µM | 807 µM | 46.2 µM and 272 µM | 871 µM | 75.9 µM and 194 µM | 827 µM | 38900 nM and 123000 nM | 442 µM | 46 µM and 110 µM | 630 µM | 45.8 µM and 188 µM | 891 µM | 39.6 µM and 118 µM | 554 µM | 219 µM | > 1000 µM | 26 µM and 79.1 µM | 67.3 µM and 373 µM | 36.7 µM and 73.2 µM | 586 µM
3 | CCN(CC)CCOc1ccc(NC(=O)C(C(C)C)N2C(=O)/C(=C/c3ccc(Br)cc3)SC2=S)cc1 (configuration not stated) | 3.37 µM | 12.5 µM | 2.2 µM | 5.14 µM | 3.74 µM | 13.9 µM | 1750 nM | 3.23 µM | 2.25 µM | 5.67 µM | 1.97 µM | 4.02 µM | 2.16 µM | 6.43 µM | 2.24 µM | 5.86 µM | 14.9 µM | 30.9 µM | 3.93 µM | 14.3 µM
4 | Cl.[O-]c1cccc2cccnc12.[O-]c1cccc2cccnc12.[O-]c1cccc2cccnc12.[O-]c1cccc2cccnc12.[Ti+4] | 0.89 µM | 12 µM | 0.712 µM | > 35.1 µM | 1.4 µM |  | 1690 nM | > 88.9 µM | 0.959 µM |  | 0.393 µM | > 100 µM |  |  | 0.303 µM |  | 3.32 µM | 26.1 µM | 0.243 µM | 11.5 µM
5 | COc1ccc(-c2nsc3c2NC(=O)CC3c2cccc(F)c2)cc1 (configuration not stated) | 5.16 µM | > 100 µM |  |  | 5.02 µM | > 100 µM | 6500 nM | > 100 µM | 50.2 µM | > 100 µM | 3.08 µM | > 100 µM | 2.44 µM | > 100 µM | 2.65 µM | > 100 µM | 3.3 µM | 9.19 µM | 2.96 µM | 16.7 µM
6 | COc1ccc(C2CC(c3ccc4ccccc4c3)=NN2c2nc(O)c(C3=c4cc(Cl)ccc4=NC3=O)s2)cc1 (configuration not stated) | 0.0251 µM and < 0.005 µM |  |  |  | 0.0226 µM and < 0.005 µM |  | 22.3 nM and < 5 nM |  | 0.0215 µM | 0.0487 µM | 0.0187 µM and < 0.005 µM | 0.0374 µM and < 0.005 µM | 0.0338 µM and < 0.005 µM | < 0.005 µM | 0.0371 µM and < 0.005 µM | 1.65 µM | 0.0263 µM and < 0.005 µM |  | 0.0923 µM | 50 µM
7 | CCOP(=O)(OCC)C(NC(c1ccccc1)c1ccccc1)c1ccsc1 (configuration not stated) | 24.7 µM | 76.9 µM |  |  | 19.9 µM | 35.5 µM |  |  |  |  | 29.2 µM | 61.5 µM | 23 µM | 98.2 µM | 14.9 µM | 56.5 µM | 43.4 µM | > 100 µM | 14.4 µM | 29.7 µM
8 | CC(C)c1ccc(C(O)(C(=O)O)c2ccc(C(C)C)cc2)cc1 |  | > 100 µM |  | > 100 µM |  | > 100 µM |  | > 100 µM |  | > 100 µM |  | > 100 µM |  | > 100 µM |  | > 100 µM |  |  |  | > 100 µM
9 | COc1ccc(Cl)cc1Nc1nc(C(F)(F)F)ccc1C(=O)N/N=C/c1ccccc1Cl | 3.53 µM | 18.5 µM | 1.82 µM | 4.62 µM | 2.99 µM | > 31.4 µM | 1640 nM | 12.8 µM | 1.93 µM | > 100 µM | 3.3 µM | > 100 µM |  |  | 10.7 µM | > 21.8 µM | 3.45 µM | > 28.4 µM | 2.83 µM | > 28.4 µM
10 | NS(=O)(=O)c1ccc(-n2nc(-c3ccccc3)cc2-c2cc(O)ccc2O)cc1 | > 100 µM | > 100 µM | 34.4 µM | > 100 µM | 77.1 µM | > 100 µM | 27700 nM | 63.2 µM |  |  | > 100 µM | > 100 µM |  |  | 40 µM | > 100 µM | > 100 µM | > 100 µM | > 100 µM | > 100 µM
11 | CCCCNP1(NCCCC)=NP(NCCCC)(NCCCC)=NP(NCCCC)(NCCCC)=NP(NCCCC)(NCCCC)=N1 | 0.593 µM | 4.03 µM | 1.23 µM | 5.55 µM | 0.271 µM | 3.2 µM | 290 nM | 2.11 µM | 0.18 µM | 18.1 µM | 0.861 µM | 15.9 µM |  |  | 0.103 µM | 3.83 µM | 0.922 µM | 3.51 µM | 73.3 µM | > 100 µM
12 | Cc1nccc2c3ccc(OCc4cn(-c5ccc(Br)cc5)nn4)cc3n(CCCc3ccccc3)c12 |  |  | 2.06 µM | 4.4 µM |  |  |  |  |  |  |  |  |  |  |  |  | > 100 µM | > 100 µM | 1.79 µM | 4.61 µM
13 | Oc1ccccc1/C=N\Nc1ccccc1 | 3.94 µM | > 100 µM | 31.1 µM | > 100 µM | 12 µM | 84.1 µM | 725 nM | 12.5 µM | 24.8 µM | > 100 µM | 2.94 µM | > 100 µM |  |  |  |  | 13.2 µM | > 100 µM | 3.2 µM | 88.5 µM
14 | Cc1cc(C(=O)CC(Cl)=C(Cl)Cl)c(Cl)cc1Cl | 23.7 µM | 65.9 µM | 19.5 µM | 44.9 µM | 18.6 µM | 37.9 µM | 17600 nM | 33.8 µM | 27.6 µM | 72.3 µM | 21.7 µM | 52.3 µM |  |  | 20.7 µM | 47.6 µM | 51.2 µM | > 100 µM | 33.5 µM | > 100 µM
